Consider 15 molecules from patent US11046709B2, “Fused 1,4-diazepines as BET bromodomain inhibitors” (THE REGENTS OF THE UNIVERSITY OF MICHIGAN, priority 2017, dated 2021).

The target of one series is T1, recombinant BRD4 BD2 (Homo sapiens, UniProt O60885).
T1 construct: for recombinant BRD4 BD1 and BRD4 BD2 proteins
The experiment in a line: Competitive fluorescence-polarization (FP) binding assay, BRD4 BD2. The protocol:
Fluorescence Polarization (FP) competitive binding studies were carried out using a FAM labeled fluorescent probe, see, e.g., Cpd. No. 350 of US 2014/0256706, to determine binding affinities of representative Compounds of the Disclosure for recombinant BRD4 BD1 and BRD4 BD2 proteins. Equilibrium dissociation constants (Kd) values of the fluorescent probe to BRD4 BD1 and BD2 proteins were determined from protein saturation experiments by monitoring the total fluorescence polarization of mixtures composed with the fluorescent probe at a fixed concentration and proteins with increasing concentrations up to full saturation. Serial dilutions of testing proteins were mixed with the fluorescent probe to a final volume of 200 μl in the assay buffer (100 mM phosphate buffer, pH=6.5, 0.01% Triton X-100 (Sigma, 282103) being added right before assays). Final fluorescent probe concentration was 1.5 nM for both proteins. Plates were incubated at room temperature for 30 minutes with gentle shaking to assure equilibrium. FP values in millipolarization units (mP) were measured using the Infinite M-1000 plate reader (Tecan U.S., Research Triangle Park, N.C.) in Microfluor 1 96-well, black, round-bottom plates (Thermo Scientific, Waltham, Mass.) at an excitation wavelength of 485 nm and an emission wavelength of 530 nm. Kd values of the fluorescent probe, which were calculated by fitting the sigmoidal dose-dependent FP increases as a function of protein concentrations using Graphpad Prism 6.0 software (Graphpad Software, San Diego, Calif.), are 5.5 and 3.0 nM to BDR4 BD1 and 2, respectively.
The IC50 and Ki values of compounds were determined in a competitive binding experiment. See US 2014/0256706. Mixtures of 10 μl of the tested compounds in assay buffer with 40% Ethylene Glycol and 190 μl of preincubated protein/probe complex solution in the assay buffer (100 mM potassium phosphate, pH 6.5, 0.01% Triton X-100) were added into assay plates which were incubated at room temperature for 30 minutes with gentle shaking. Final concentrations of proteins were 10 and 6 nM in assays for BRD4 BD1 and BD2, respectively. Final probe concentration is 1.5 nM in both assays. Negative controls containing protein/probe complex only (equivalent to 0% inhibition), and positive controls containing only free probes (equivalent to 100% inhibition), were included in each assay plate. FP values were measured as described above. IC50 values were determined by nonlinear regression fitting of the competition curves. Instead of being calculated from IC50 values as described before. Ki values of competitive inhibitors were obtained directly by nonlinear regression fitting as well, based upon the Kd values of the probe to different proteins, and concentrations of the proteins and probes in the competitive assays (US 2014/0256706; Wang, FEBS Lett. 360:111 (1995); Zhang et al., Analytical Biochemistry, 331:138 (2004)).
Representative compounds in Table 5 were evaluated for their binding affinities to BRD4 BD1 and BD2 proteins using the Competitive Fluorescence-Polarization (FP) Assays described in Example 6, with the data included in Table 6.

Another series deals with MOLM-13. The series can be described thus: Cell growth inhibition, 4-day proliferation assay, MOLM-13. The format is cell-based. The following applies: Homo sapiens.
Another series concerns MDA-MB-231. The series can be described thus: Cell growth inhibition, 4-day proliferation assay, MDA-MB-231. The format is cell-based. The settings on record: Homo sapiens, MDA-MB-231, 96 h, read-out: Cell IC50 (nM) MDA-MB-231. An outline of the steps: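 WST-8 colorimetric read-out (absorbance 450 nm after 1-2 h) after 4-day compound exposure of 3,000-10,000 cells/well at 37 °C; IC50 from variable-slope sigmoid fit of DMSO-normalized signal.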

Series [1] can be described thus: Plasma exposure after oral gavage in mice, LC-MS/MS. Format: in vivo. The following applies: mouse, in vivo, po, 25 mg/kg. The protocol:
For a number of representative compounds in Table 5, their plasma exposures with oral administration in mice via oral gavage were determined by LC-MS/MS, with the data shown in Table 9.

Where [2] appears, read: MOLM-13, 96 h, read-out: Cell IC50 (nM) MOLM13.
Where [3] appears, read: MOLM-13, WST-8 assay, Table 7, read-out: Cell growth inhibition (IC50 (nM)) MOLM-13.

Structures are written as SMILES. Where two headings read alike, the source gives them in different places.

As to `Cc1c(C#Cc2ccc(N)nc2)sc2c1C(c1ccc(Cl)cc1)=N[C@@H](C)c1nnc(C)n1-2` [Cpd. No. 18, (S)-5-((4-(4-chlorophenyl)-3,6,9-trimethyl-6H-thieno[3,2-f][1,2,4]triazolo[4,3-a][1,4]diazepin-2-yl)ethynyl)pyridin-2-amine], the IC50 (commonly the concentration that gives 50% inhibition) at recombinant BRD4 BD2 came to 8.84 nM; in the series with MOLM-13 (setting [2]) it was 9.63 nM; in the series with MDA-MB-231, 2.44 nM.

Take `Cc1c(C#CC2CCOCC2)sc2c1C(c1ccc(Cl)cc1)=N[C@@H](CC(=O)N1CCOCC1)c1nnc(C)n1-2` [Compound 154, (S)-2-(4-(4-chlorophenyl)-3,9-dimethyl-2-((tetrahydro-2H-pyran-4-yl)ethynyl)-6H-thieno[3,2-f][1,2,4]triazolo[4,3-a][1,4]diazepin-6-yl)-1-morpholinoethan-1-one]: the IC50 in the series with MOLM-13 (setting [3]) was determined as 38.8 nM. For the same molecule, in series [1], the concentration at 1 h is 1040 ng/mL, the concentration at 3 h was 372 ng/mL and the concentration at 6 h is 220 ng/mL.

As to `Cc1c(C#Cc2ccncc2)sc2c1C(c1ccc(Cl)cc1)=N[C@@H](C)c1nnc(C)n1-2` [Cpd. No. 8, (S)-4-(4-chlorophenyl)-3,6,9-trimethyl-2-(pyridin-4-ylethynyl)-6H-thieno[3,2-f][1,2,4]triazolo[4,3-a][1,4]diazepine], the IC50 turned out to be 10.4 nM at recombinant BRD4 BD2, 13.5 ± 0.8 nM in the series on MOLM-13 (setting [2]) and 64.5 ± 22.7 nM in the series with MDA-MB-231.

Take `Cc1c(C#CC2CCOCC2)sc2c1C(c1ccc(Cl)cc1)=N[C@@H](CC(=O)N1CC(F)(F)C1)c1nnc(C)n1-2` [Compound 156, (S)-2-(4-(4-chlorophenyl)-3,9-dimethyl-2-((tetrahydro-2H-pyran-4-yl)ethynyl)-6H-thieno[3,2-f][1,2,4]triazolo[4,3-a][1,4]diazepin-6-yl)-1-(3,3-difluoroazetidin-1-yl)ethan-1-one]: the IC50 in the series with MOLM-13 (setting [3]) amounted to 36.1 nM. In series [1], this molecule gave a concentration at 1 h of 805 ng/mL, a concentration at 3 h of 473 ng/mL and a concentration at 6 h of 226 ng/mL.

With `Cc1c(C#Cc2ccccn2)sc2c1C(c1ccc(Cl)cc1)=NCc1nnc(C)n1-2` [Cpd. No. 1, 4-(4-chlorophenyl)-3,9-dimethyl-2-(pyridin-2-ylethynyl)-6H-thieno[3,2-f][1,2,4]triazolo[4,3-a][1,4]diazepine], the IC50 on recombinant BRD4 BD2 was 178 nM; with MOLM-13 (setting [2]), 206 ± 21.9 nM; in the series with MDA-MB-231, 272 nM.

For `Cc1c(C#CC2CCOCC2)sc2c1C(c1ccc(Cl)cc1)=N[C@@H](CC(N)=O)c1nnc(C)n1-2` [Compound 152, (S)-2-(4-(4-chlorophenyl)-3,9-dimethyl-2-((tetrahydro-2H-pyran-4-yl)ethynyl)-6H-thieno[3,2-f][1,2,4]triazolo[4,3-a][1,4]diazepin-6-yl)acetamide], the IC50 with MOLM-13 (setting [3]) worked out at 30 nM. Moreover, in series [1], the concentration at 1 h amounted to 1120 ng/mL, the concentration at 3 h was determined as 472 ng/mL and the concentration at 6 h turned out to be 231 ng/mL.

For `Cc1c(C#CC2CCOCC2)sc2c1C(c1ccc(Cl)cc1)=N[C@@H](CC(=O)Nc1ccc(O)cc1)c1nnc(C)n1-2` [Compound 155, (S)-2-(4-(4-chlorophenyl)-3,9-dimethyl-2-((tetrahydro-2H-pyran-4-yl)ethynyl)-6H-thieno[3,2-f][1,2,4]triazolo[4,3-a][1,4]diazepin-6-yl)-N-(4-hydroxyphenyl)acetamide], the IC50 with MOLM-13 (setting [3]) amounted to 69.3 nM. In series [1], this molecule came in with a concentration at 1 h of 832 ng/mL, a concentration at 3 h of 127 ng/mL and a concentration at 6 h of 42 ng/mL.

`COCC#Cc1sc2c(c1C)C(c1ccc(Cl)cc1)=N[C@@H](C)c1nnc(C)n1-2` [Cpd. No. 15, (S)-4-(4-chlorophenyl)-2-(3-methoxyprop-1-yn-1-yl)-3,6,9-trimethyl-6H-thieno[3,2-f][1,2,4]triazolo[4,3-a][1,4]diazepine]: the IC50 on recombinant BRD4 BD2 worked out at 11.3 nM; with MOLM-13 (setting [2]) it was 25.6 nM; with MDA-MB-231 it was 51.1 nM.

Turning to `Cc1c(C#Cc2ccccn2)sc2c1C(c1ccc(Cl)cc1)=N[C@@H](C)c1nnc(C)n1-2` [Cpd. No. 2, (S)-4-(4-chlorophenyl)-3,6,9-trimethyl-2-(pyridin-2-ylethynyl)-6H-thieno[3,2-f][1,2,4]triazolo[4,3-a][1,4]diazepine], the IC50 at recombinant BRD4 BD2 is 14.5 nM; with MOLM-13 (setting [2]), 15.7 ± 0.43 nM; in the series on MDA-MB-231 it was 31 nM.

As to `Cc1c(C#CCO)sc2c1C(c1ccc(Cl)cc1)=NCc1nnc(C)n1-2` [Cpd. No. 9, 3-(4-(4-chlorophenyl)-3,9-dimethyl-6H-thieno[3,2-f][1,2,4]triazolo[4,3-a][1,4]diazepin-2-yl)prop-2-yn-1-ol], the values for the IC50 on recombinant BRD4 BD2, in the series with MOLM-13 (setting [2]) and with MDA-MB-231 were 126 nM, 215 nM and 412 nM, respectively.

Turning to `Cc1c(C#Cc2cccnc2)sc2c1C(c1ccc(Cl)cc1)=N[C@@H](C)c1nnc(C)n1-2` [Cpd. No. 4, (S)-4-(4-chlorophenyl)-3,6,9-trimethyl-2-(pyridin-3-ylethynyl)-6H-thieno[3,2-f][1,2,4]triazolo[4,3-a][1,4]diazepine], the IC50 on recombinant BRD4 BD2 was 12.5 nM; in the series on MOLM-13 (setting [2]), 10.5 ± 0.24 nM; with MDA-MB-231 it was 2.63 ± 0.6 nM.

As to `Cc1nnc(C[C@@H]2N=C(c3ccc(Cl)cc3)c3c(sc(C#CC4(C)COC4)c3C)-n3c(C)nnc32)o1` [Compound 149, (S)-2-((4-(4-chlorophenyl)-3,9-dimethyl-2-((3-methyloxetan-3-yl)ethynyl)-6H-thieno[3,2-f][1,2,4]triazolo[4,3-a][1,4]diazepin-6-yl)methyl)-5-methyl-1,3,4-oxadiazole], in series [1], the concentration at 1 h was 13000 ng/mL, the concentration at 3 h is 12800 ng/mL and the concentration at 6 h was 6640 ng/mL.

Consider `Cc1c(C#Cc2ccc(CCCCO)cn2)sc2c1C(c1ccc(Cl)cc1)=N[C@@H](C)c1nnc(C)n1-2` [Cpd. No. 13], for which the IC50 turned out to be 11.1 nM on recombinant BRD4 BD2 (competitive FP, Table 3, read-out: Binding Affinity BRD4-BD2 IC50); 23 nM with MOLM-13 (MOLM-13, 96 h, 4-day proliferation assay, Table 4, read-out: Cell IC50 (nM) MOLM13); 84.4 nM with MDA-MB-231 (4-day proliferation assay, Table 4).

`Cc1c(C#CCCCO)sc2c1C(c1ccc(Cl)cc1)=N[C@@H](C)c1nnc(C)n1-2` [Cpd. No. 11, (S)-5-(4-(4-chlorophenyl)-3,6,9-trimethyl-6H-thieno[3,2-f][1,2,4]triazolo[4,3-a][1,4]diazepin-2-yl)pent-4-yn-1-ol]: the half-maximal inhibitory concentration (IC50) on recombinant BRD4 BD2 is 7.22 nM; in the series with MOLM-13 (setting [2]), 6.87 nM; in the series on MDA-MB-231, less than 1.7 nM.

Turning to `Cc1nnc(C[C@@H]2N=C(c3ccc(Cl)cc3)c3c(sc(C#CC4CCOCC4)c3C)-n3c(C)nnc32)s1` [Compound 151, (S)-4-(4-chlorophenyl)-3,9-dimethyl-6-((5-methyl-1,3,4-thiadiazol-2-yl)methyl)-2-((tetrahydro-2H-pyran-4-yl)ethynyl)-6H-thieno[3,2-f][1,2,4]triazolo[4,3-a][1,4]diazepine], in the series on MOLM-13 (setting [3]), the IC50 stood at 81.6 nM. In series [1], this molecule displayed a concentration at 1 h of 451 ng/mL, a concentration at 3 h of 299 ng/mL and a concentration at 6 h of 115 ng/mL.
